In US11433053B2, “LSD1 inhibitor and preparation method and application thereof” (CSPC ZHONGQI PHARMACEUTICAL TECHNOLOGY (SHIJIAZHUANG) CO., …, priority 2017, dated 2022):

How the values were obtained:
human LSD1 = human LSD1 (Homo sapiens (Human), UniProt O60341); test: Evaluation of enzyme activity: LSD1 fluorescence coupling enzyme assay (HRP/Amplex Red); type: biochemical; conditions: human LSD1, histone H3(1-21)K4me2 peptide 10 μM, 30 min pre-incubation
Outline: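 Human LSD1 preincubated 30 min with compound, then reacted with H3(1-21)K4me2 peptide (10 μM). FAD-dependent H2O2 detected via HRP/Amplex Red fluorescence (Ex/Em 535/590). Ten-dose, 3-fold dilutions in duplicate from 10 μM gave IC50s, binned into activity classes.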

H1417 cells = test: Cell proliferation inhibitory activity on H1417 cells (CellTiter-Glo, 10 days); type: cell-based, human; conditions: Homo sapiens; for IC50: NCI-H1417, 240 h, H1417 cells, 10 days incubation; for Emax: NCI-H1417, H1417 cells, highest percentage inhibition of cell viability, read-out: Maximum inhibition percentage (%)
Description: Experimental purposes: To test the proliferation inhibitory activities of the test compounds on H1417 cells.
Experimental materials: RPMI 1640 medium, fetal bovine serum, Promega CellTiter-Glo reagent. The H1417 cell line purchased from ATCC. Envision Multi-Label Analyzer (PerkinElmer).
Experimental method: H1417 cells were seeded in a black 384-well plate, 1000 cells per well in […] of cell suspension. The test compounds were diluted 3-fold with Epmotion to the 10th concentration i.e, the compounds were diluted from 10 mmol to […], and a double duplicate well experiment was set. 198 μL medium was added to the middle plate, according to the corresponding position, 2 μL gradient diluted compounds were added to the middle plate. The mixture was mixed evenly and transferred 20 μL per well to the cell plates. The cell plates were incubated in a carbon dioxide incubator for 10 days. 25 μL of Promega CellTiter-Glo reagent per well was added to the cell plate and the mixture was incubated for 10 minutes at room temperature to stabilize the luminescence signal. Readings were performed by PerkinElmer Envision multi-label analyzer.
Data analysis: The original data was converted to the inhibition rate by the equation (Max-Ratio)/(Max-Min)*100%, and the value of IC50 can be obtained by curve fitting with four parameters. (Model 205 in XLFIT5, iDBS)
The growth inhibitory activities of the test compounds on H1417 cells were classified as + for IC50≤100 nM; ++ for IC50>100 nM and ≤500 nM; +++ for IC50>500 nM and ≤1000 nM; the highest percentage inhibition of cell viability was classified as: […]; 90%>B≥70%; 70%>C≥50%.

[1] = Pharmacokinetic evaluation in C57BL/6 mice after intravenous and oral administration; type: in vivo; conditions: male, mouse, plasma; for Cmax / clearance / half-life / Vd: IV 1 mg/kg; for Cmax: oral 2 mg/kg, route of Cmax not stated, read-out: max concentration Cmax; for clearance: read-out: clearance CL; for half-life: read-out: half-life T1/2 (IV, h) (converted); for Vd: read-out: volumes of distribution Vdss; for bioavailability: PO 2 mg/kg vs IV 1 mg/kg, read-out: bioavailability F (%); for AUC(0-t): PO 2 mg/kg, read-out: the area under the plasma concentration-time curve AUC0-last PO
Description: Experimental purposes: To test the pharmacokinetics of compounds in C57BL/6 mice
C57BL/6 mice (male, 7-9 weeks old, Shanghai Slack)
Test the pharmacokinetics characteristics of rodents after intravenous and oral administration in accordance with standard protocols, and the candidate compound was formulated into a clear solution in the experiment. The mice were administered by intravenous injection and orally once. The intravenous and oral vehicle is a 10% aqueous solution of hydroxypropyl β-cyclodextrin or a physiological saline solution. Six male C57BL/6 mice were employed in this assay, three of them were administered intravenously at a dose of 1 mg/kg, plasma samples were collected at 0 h (before administration) and 0.0833, 0.25, 0.5, 1, 2, 4, 7, 24 h after administration. Another three mice were administered by oral gavage at a dose of 2 mg/kg, plasma samples were collected at 0 h (before administration) and 0.5, 1, 2, 3, 4, 6, 24 h after administration. Collect whole blood samples within 24 hours, centrifuge at 3000 g for 15 minutes, separate the supernatant to obtain a plasma sample, 4 times volume of the internal standard acetonitrile solution was added to precipitate the protein. Centrifuge the supernatant and add an equal volume of water and centrifuge to take the supernatant. LC-MS/MS was used to quantitatively analyze plasma concentrations and calculate pharmacokinetic parameters such as max concentration (Cmax), clearance (CL), half-life (T1/2), volumes of distribution (Vdss), the area under the plasma concentration-time curve (AUC0-last), bioavailability (F), etc.

Compound | IC50 (human LSD1) | IC50 (H1417 cells) | Emax (H1417 cells) | Cmax [1] | clearance [1] | half-life [1] | Vd [1] | bioavailability [1] | AUC(0-t) [1]
N#Cc1ccc(-c2nc(C3(CN[C@H]4CC4c4ccccc4)CC3)no2)cc1 (stereo partly shown) [Example 64] | ≤ 0.05 µM | 0.1 to 0.5 µM | 90 to 100% | 1290 ng/mL | 21.9 mL/min/kg | 1.3 h | 1.9 L/kg | 44% | 1.88 µM·h
Clc1ccc(-c2nc(C3(CN[C@H]4CC4c4ccccc4)CC3)no2)cc1 (stereo partly shown) [Example 65] | ≤ 0.05 µM | 0.1 to 0.5 µM | 90 to 100% | 2070 ng/mL | 10.6 mL/min/kg | 4.2 h | 3 L/kg | 49% | 3.38 µM·h
FC(F)(F)c1ccc(-c2nc(C3(CN[C@H]4CC4c4ccccc4)CC3)no2)cn1 (stereo partly shown) [Example 66] | ≤ 0.05 µM | 0.5 to 1 µM | 90 to 100% | 2140 ng/mL | 13.1 mL/min/kg | 1.5 h | 1.4 L/kg | 57% | 3.51 µM·h
O=C(O)c1ccc(CN2CCC(c3nc(C4(CN[C@@H]5CC5c5ccccc5)CC4)no3)CC2)cc1 (stereo partly shown) [Example 169] | – | 0.5 to 1 µM | 50 to 70% | 763 ng/mL | 43.4 mL/min/kg | 1 h | 0.5 L/kg | 20.6% | 0.329 µM·h
O=C(O)[C@H]1CC[C@@H](c2nc(C3(CN[C@H]4CC4c4ccccc4)CC3)no2)C1 (stereo partly shown) [Example 174] | 0.1 to 0.5 µM | 0.5 to 1 µM | 50 to 70% | – | – | – | – | – | –
O=C(O)C12CCC(c3nc(C4(CN[C@H]5CC5c5ccccc5)CC4)no3)(CC1)CC2 (stereo partly shown) [Example 177] | – | 0.5 to 1 µM | 50 to 70% | 3210 ng/mL | 9.9 mL/min/kg | 1.6 h | 0.5 L/kg | 51.5% | 3.86 µM·h
O=C(O)[C@@H]1CC[C@H](c2nc(C3(CN[C@H]4CC4c4ccccc4)CC3)no2)C1 (stereo partly shown) [Example 178] | 0.1 to 0.5 µM | 0.5 to 1 µM | 70 to 90% | – | – | – | – | – | –
NC(=O)c1ccc(-c2nc(C3(CN[C@H]4CC4c4ccccc4)CC3)no2)cc1 (stereo partly shown) [Example 182] | ≤ 0.05 µM | 0.5 to 1 µM | 90 to 100% | – | – | – | – | – | –
CN(C)C(=O)c1ccc(-c2nc(C3(CN[C@H]4CC4c4ccccc4)CC3)no2)cc1 (stereo partly shown) [Example 183] | ≤ 0.05 µM | 0.5 to 1 µM | 90 to 100% | – | – | – | – | – | –
O=C(NC1CC1)c1ccc(-c2nc(C3(CN[C@H]4CC4c4ccccc4)CC3)no2)cc1 (stereo partly shown) [Example 184] | ≤ 0.05 µM | 0.1 to 0.5 µM | 90 to 100% | – | – | – | – | – | –
N#Cc1ccc(-c2nc(C3(CN[C@H]4CC4c4ccccc4)CCC3)no2)cc1 (stereo partly shown) [Example 192] | ≤ 0.05 µM | 0.1 to 0.5 µM | 50 to 70% | – | – | – | – | – | –
N#Cc1ccc(-c2nc(C3(CN[C@H]4CC4c4ccccc4)CCC3)no2)c(F)c1 (stereo partly shown) [Example 193] | ≤ 0.05 µM | 0.1 to 0.5 µM | 50 to 70% | – | – | – | – | – | –
NC1CCC(NCC2(CN[C@H]3CC3c3ccccc3)CC2)CC1 (stereo partly shown) [Example 195] | ≤ 0.05 µM | 0.1 to 0.5 µM | 50 to 70% | – | – | – | – | – | –
c1ccc(C2C[C@@H]2NCC2(CN[C@@H]3CC3c3ccccc3)CC2)cc1 (stereo partly shown) [Example 198] | ≤ 0.05 µM | 0.1 to 0.5 µM | 50 to 70% | – | – | – | – | – | –
NC1(CN[C@H]2CC2c2ccccc2)CC1 (stereo partly shown) [Example 199] | 0.05 to 0.1 µM | 0.5 to 1 µM | 70 to 90% | – | – | – | – | – | –
O=C(O)c1ccc(CN2CCC3(CC2)CC(c2nc(C4(CN[C@H]5CC5c5ccccc5)CC4)no2)C3)cc1 (stereo partly shown) [Example 206] | 0.1 to 0.5 µM | 0.5 to 1 µM | 50 to 70% | – | – | – | – | – | –
c1ccc(C2C[C@@H]2NCC2(CN3CC4CNCC4C3)CC2)cc1 (stereo partly shown) [Example 207] | ≤ 0.05 µM | 0.5 to 1 µM | 50 to 70% | – | – | – | – | – | –
O=C(C1CC1)N1CCC(c2nc(C3(CN[C@H]4CC4c4ccccc4)CC3)no2)CC1 (stereo partly shown) [Example 208] | ≤ 0.05 µM | 0.1 to 0.5 µM | 70 to 90% | – | – | – | – | – | –

Compound | IC50 (human LSD1) | IC50 (H1417 cells) | Emax (H1417 cells) | Cmax [1] | clearance [1] | half-life [1] | Vd [1] | bioavailability [1] | AUC(0-t) [1]
O=C(O)[C@@H]1CCCN1CC1(CN[C@H]2CC2c2ccccc2)CC1 (stereo partly shown) [Example 210] | ≤ 0.05 µM | 0.5 to 1 µM | 50 to 70% | 815 ng/mL | 37.7 mL/min/kg | 2.7 h | 2.6 L/kg | 40.5% | 1.13 µM·h
C[C@@H]1CCCN1CC1(CN[C@H]2CC2c2ccccc2)CC1 (stereo partly shown) [Example 213] | ≤ 0.05 µM | 0.1 to 0.5 µM | 50 to 70% | – | – | – | – | – | –
N[C@@H]1CCC[C@@H](c2nc(C3(CN[C@@H]4C[C@H]4c4ccccc4)CC3)no2)C1 [Example 214] | 0.05 to 0.1 µM | 0.1 to 0.5 µM | 70 to 90% | – | – | – | – | – | –
C[C@@H]1CN(CC2(CN[C@H]3CC3c3ccccc3)CC2)C[C@H](C)N1 (stereo partly shown) [Example 216] | 0.1 to 0.5 µM | ≤ 0.1 µM | 90 to 100% | – | – | – | – | – | –
C[C@@H]1CN(CC2(CN[C@H]3CC3c3ccccc3)CC2)C[C@H](C)O1 (stereo partly shown) [Example 217] | 0.1 to 0.5 µM | 0.5 to 1 µM | 50 to 70% | – | – | – | – | – | –
c1ccc(C2C[C@@H]2NCC2(c3noc(C4CC5(CCNCC5)C4)n3)CC2)cc1 (stereo partly shown) [Example 219] | ≤ 0.05 µM | 0.5 to 1 µM | 90 to 100% | – | – | – | – | – | –
N[C@@H]1CCC[C@H](c2nc(C3(CN[C@@H]4C[C@H]4c4ccccc4)CC3)no2)C1 [Example 220] | 0.05 to 0.1 µM | 0.1 to 0.5 µM | 70 to 90% | – | – | – | – | – | –
CC1(c2nc(C3(CN[C@@H]4C[C@H]4c4ccccc4)CC3)no2)CCC(N)CC1 (stereo partly shown) [Example 224] | – | – | – | 58.5 ng/mL | 112 mL/min/kg | 2.97 h | 21.7 L/kg | 35.1% | 0.273 µM·h
N[C@H]1CC[C@H](Cc2nc(C3(CN[C@H]4CC4c4ccccc4)CC3)no2)CC1 (stereo partly shown) [Example 225] | ≤ 0.05 µM | 0.1 to 0.5 µM | 90 to 100% | – | – | – | – | – | –
O=C(N1CCC(c2nc(C3(CN[C@H]4CC4c4ccccc4)CC3)no2)CC1)C(F)(F)F (stereo partly shown) [Example 226] | ≤ 0.05 µM | ≤ 0.1 µM | 90 to 100% | – | – | – | – | – | –
O=C(O)[C@H](Cc1c[nH]c2ccccc12)NCC1(CN[C@@H]2C[C@H]2c2ccccc2)CC1 [Example 227] | 0.1 to 0.5 µM | ≤ 0.1 µM | 50 to 70% | – | – | – | – | – | –
c1ccc([C@@H]2C[C@H]2NCC2(CN3CCCNCC3)CC2)cc1 [Example 230] | 0.1 to 0.5 µM | 0.1 to 0.5 µM | 50 to 70% | – | – | – | – | – | –
N[C@H]1CC[C@H](c2nc(C3(CN[C@@H]4C[C@H]4c4ccccc4)CCC3)no2)CC1 [Example 233] | 0.1 to 0.5 µM | 0.1 to 0.5 µM | 70 to 90% | – | – | – | – | – | –
O=C(O)C1(CN2CCC(c3nc(C4(CN[C@@H]5C[C@H]5c5ccccc5)CC4)no3)CC2)CCC1 [Example 235] | 0.1 to 0.5 µM | ≤ 0.1 µM | 70 to 90% | 497 ng/mL | 62.4 mL/min/kg | 0.34 h | 0.99 L/kg | 28% | 0.37 µM·h
NC1CCC(c2nc(C3(CN[C@@H]4C[C@H]4c4ccccc4)CC3)no2)CC1(F)F (stereo partly shown) [Example 244] | ≤ 0.05 µM | ≤ 0.1 µM | 70 to 90% | – | – | – | – | – | –
c1ccc([C@@H]2C[C@H]2NCC2(c3noc(N4CCNCC4)n3)CC2)cc1 [Example 246] | ≤ 0.05 µM | 0.5 to 1 µM | 90 to 100% | – | – | – | – | – | –
CN1CCN(c2nc(C3(CN[C@@H]4C[C@H]4c4ccccc4)CC3)no2)CC1 [Example 247] | ≤ 0.05 µM | 0.5 to 1 µM | 90 to 100% | – | – | – | – | – | –
